System: C57BL/6J mice
Assay: Glucokinase activator in vivo screen (blood glucose after oral dosing)
Settings: oral gavage 50 mg/kg, two hour fast, blood glucose at 1, 2, 4 and 6 hours post dose
Procedure: Glucokinase Activator In Vivo Screen Protocol
C57BL/6J mice are orally dosed via gavage with Glucokinase (GK) activator at 50 mg/kg body weight following a two hour fasting period. Blood glucose determinations are made five times during the six hour post-dose study period.
Mice (n=6) are weighed and fasted for a two hour period prior to oral treatment.
In the case of `CS(=O)(=O)c1ccc([C@@H](CC2CCC(=NO)CC2)C(=O)Nc2cnc(Br)cn2)cc1Cl` (stereo partly drawn) [Example 67, N-(5-Bromo-pyrazin-2-yl)-2(R)-(3-chloro-4-methanesulfonyl-phenyl)-3-(4-hydroxyimino-cyclohexyl)-propionamide], the “glucokinase activator in vivo activity when administered orally (decrease in blood glucose compared to vehicle)” value is reported as “excellent glucokinase activator in vivo activity”.
For `CS(=O)(=O)c1ccc(C(CC2CCC(=NO)CC2)C(=O)Nc2cnc(Br)cn2)cc1Cl` (stereo not shown) [Example 66, N-(5-Bromo-pyrazin-2-yl)-2-(3-chloro-4-methanesulfonyl-phenyl)-3-(4-hydroxyimino-cyclohexyl)-propionamide], the “glucokinase activator in vivo activity when administered orally (decrease in blood glucose compared to vehicle)” value was “excellent glucokinase activator in vivo activity”.
With `CS(=O)(=O)c1ccc([C@@H](CC2CCC(=O)CC2)C(=O)Nc2cnc(Cl)cn2)cc1Cl` [Example 61, 2(R)-(3-Chloro-4-methanesulfonyl-phenyl)-N-(5-chloro-pyrazin-2-yl)-3-(4-oxo-cyclohexyl)-propionamide] the “glucokinase activator in vivo activity when administered orally (decrease in blood glucose compared to vehicle)” value was “excellent glucokinase activator in vivo activity”.
In the case of `CS(=O)(=O)c1ccc(C(CC2CC/C(=N/O)C2)C(=O)Nc2cnc(Br)cn2)cc1Cl` (stereo not shown) [Example 52, N-(5-Bromo-pyrazin-2-yl)-2-(3-chloro-4-methanesulfonyl-phenyl)-3-(3-hydroxyimino-cyclopentyl)-propionamide], the “glucokinase activator in vivo activity when administered orally (decrease in blood glucose compared to vehicle)” value is reported as “excellent glucokinase activator in vivo activity”.
For `CO/N=C1/CCC(CC(C(=O)Nc2cnccn2)c2ccc(S(C)(=O)=O)c(Cl)c2)C1` (stereo not shown) [Example 54, 2-(3-Chloro-4-methanesulfonyl-phenyl)-3-(3-methoxyimino-cyclopentyl)-N-pyrazin-2-yl-propionamide], the “glucokinase activator in vivo activity when administered orally (decrease in blood glucose compared to vehicle)” value was “excellent glucokinase activator in vivo activity”.
In the case of `CS(=O)(=O)c1ccc(C(CC2CCOCC2)C(=O)Nc2cnc(Br)cn2)cc1Cl` (stereo not shown) [Example 21, N-(5-Bromo-pyrazin-2-yl)-2-(3-chloro-4-methanesulfonyl-phenyl)-3-(tetrahydro-pyran-4-yl)-propionamide], the “glucokinase activator in vivo activity when administered orally (decrease in blood glucose compared to vehicle)” value is reported as “excellent glucokinase activator in vivo activity”.
In the case of `CS(=O)(=O)c1ccc(C(CC2CCC(=O)CC2)C(=O)Nc2cnc(Br)cn2)cc1Cl` (stereo not shown) [Example 59, N-(5-Bromo-pyrazin-2-yl)-2-(3-chloro-4-methanesulfonyl-phenyl)-3-(4-oxo-cyclohexyl)-propionamide], the “glucokinase activator in vivo activity when administered orally (decrease in blood glucose compared to vehicle)” value is reported as “excellent glucokinase activator in vivo activity”.
For `CS(=O)(=O)c1ccc(C(CC2CCC(=O)C2)C(=O)Nc2cnc(Br)cn2)cc1Cl` (stereo not shown) [Example 49, N-(5-Bromo-pyrazin-2-yl)-2-(3-chloro-4-methanesulfonyl-phenyl)-3-(3-oxo-cyclopentyl)-propionamide], the “glucokinase activator in vivo activity when administered orally (decrease in blood glucose compared to vehicle)” value was “excellent glucokinase activator in vivo activity”.
With `CS(=O)(=O)c1ccc(C(CC2CCOCC2)C(=O)Nc2cnc(/C(N)=N/O)cn2)cc1Cl` (stereo not shown) [Example 23] the “glucokinase activator in vivo activity when administered orally (decrease in blood glucose compared to vehicle)” value was “excellent glucokinase activator in vivo activity”.
For `CS(=O)(=O)c1ccc([C@@H](CC2CCC(=O)CC2)C(=O)Nc2cnc(Br)cn2)cc1Cl` [Example 60, N-(5-Bromo-pyrazin-2-yl)-2(R)-(3-chloro-4-methanesulfonyl-phenyl)-3-(4-oxo-cyclohexyl)-propionamide], the “glucokinase activator in vivo activity when administered orally (decrease in blood glucose compared to vehicle)” value was “excellent glucokinase activator in vivo activity”.
For `CS(=O)(=O)c1ccc([C@@H](CC2CCC(=NO)CC2)C(=O)Nc2cnc(Cl)cn2)cc1Cl` (stereo partly drawn) [Example 68, 2(R)-(3-Chloro-4-methanesulfonyl-phenyl)-N-(5-chloro-pyrazin-2-yl)-3-(4-hydroxyimino-cyclohexyl)-propionamide], the “glucokinase activator in vivo activity when administered orally (decrease in blood glucose compared to vehicle)” value was “excellent glucokinase activator in vivo activity”.
With `CO/N=C1/CCC(CC(C(=O)Nc2cnc(Br)cn2)c2ccc(S(C)(=O)=O)c(Cl)c2)C1` (stereo not shown) [Example 55, N-(5-Bromo-pyrazin-2-yl)-2-(3-chloro-4-methanesulfonyl-phenyl)-3-(3-methoxyimino-cyclopentyl)-propionamide] the “glucokinase activator in vivo activity when administered orally (decrease in blood glucose compared to vehicle)” value was “excellent glucokinase activator in vivo activity”.

System: not given
Assay: not given
Settings: not given
Compound `CO/N=C1/CCC(CC(C(=O)Nc2nccs2)c2ccc(Cl)c(Cl)c2)C1` (stereo not shown) [Example 53, 2-(3,4-Dichloro-phenyl)-3-(3-methoxyimino-cyclopentyl)-N-thiazol-2-yl-propionamide] has a melting point of 69 to 72 °C.
In the case of `CS(=O)(=O)c1ccc(C(CC2CCCC2=O)C(=O)Nc2nccs2)cc1` (stereo not shown) [Example 29, 2-(4-Methanesulfonyl-phenyl)-3-(2-oxo-cyclopentyl)-N-thiazol-2-yl-propionamide], the melting point is reported as 228 to 230 °C.
Compound `CNC(=O)NC(=O)C(CC1CCCC1O)c1ccc(Cl)c(Cl)c1` (stereo not shown) [Example 24, 1-[2-(3,4-Dichloro-phenyl)-3-(2-hydroxy-cyclopentyl)-propionyl]-3-methyl-urea] has a melting point of 62 to 64 °C.
Compound `O=C(Nc1nccs1)C(CC1CC/C(=N/O)C1)c1ccc(Cl)c(Cl)c1` (stereo not shown) [Example 50, 2-(3,4-Dichloro-phenyl)-3-(3-hydroxyimino-cyclopentyl)-N-thiazol-2-yl-propionamide] has a melting point of 98 to 101 °C.
For `CS(=O)(=O)c1ccc(C(CC2CC/C(=N/O)C2)C(=O)Nc2cnccn2)cc1Cl` (stereo not shown) [Example 51, 2-(3-Chloro-4-methanesulfonyl-phenyl)-3-(3-hydroxyimino-cyclopentyl)-N-pyrazin-2-yl-propionamide], the melting point was 205 to 207 °C.
With `O=C1CCCC1CC(C(=O)Nc1nccs1)c1ccc(Cl)c(Cl)c1` (stereo not shown) [Example 28, 2-(3,4-Dichloro-phenyl)-3-(2-oxo-cyclopentyl)-N-thiazol-2-yl-propionamide] the melting point was 79 to 81 °C.
With `CS(=O)(=O)c1ccc(C(CC2CC/C(=N/O)C2)C(=O)Nc2cnc(Br)cn2)cc1Cl` (stereo not shown) [Example 52, N-(5-Bromo-pyrazin-2-yl)-2-(3-chloro-4-methanesulfonyl-phenyl)-3-(3-hydroxyimino-cyclopentyl)-propionamide] the melting point was 100 to 106 °C.
Work on `CO/N=C1/CCC(CC(C(=O)Nc2cnccn2)c2ccc(S(C)(=O)=O)c(Cl)c2)C1` (stereo not shown) [Example 54, 2-(3-Chloro-4-methanesulfonyl-phenyl)-3-(3-methoxyimino-cyclopentyl)-N-pyrazin-2-yl-propionamide] yielded a melting point of 85 to 87 °C.
`CO/N=C1/CCCC1CC(C(=O)Nc1cnccn1)c1ccc(S(C)(=O)=O)c(Cl)c1` (stereo not shown) [Example 33, 2-(3-Chloro-4-methanesulfonyl-phenyl)-3-(2-methoxyimino-cyclopentyl)-N-pyrazin-2-yl-propionamide] showed a melting point of 74 to 76 °C.
`CC(=O)OC1CCC(CC(C(=O)Nc2nccs2)c2ccc(Cl)c(Cl)c2)C1` (stereo not shown) [Example 40, Acetic acid 3-[2-(3,4-dichloro-phenyl)-2-(thiazol-2-ylcarbamoyl)-ethyl]-cyclopentyl ester] gave a melting point of 49 to 52 °C.
Work on `O=C1CCC(CC(C(=O)Nc2nccs2)c2ccc(Cl)c(Cl)c2)C1` (stereo not shown) [Example 43, 2-(3,4-Dichloro-phenyl)-3-(3-oxo-cyclopentyl)-N-thiazol-2-yl-propionamide] yielded a melting point of 146 to 148 °C.
Work on `CC1(O)CCC(CC(C(=O)Nc2cnccn2)c2ccc(S(C)(=O)=O)c(Cl)c2)C1` (stereo not shown) [Example 57, 2-(3-Chloro-4-methanesulfonyl-phenyl)-3-(3-hydroxy-3-methyl-cyclopentyl)-N-pyrazin-2-yl-propionamide] yielded a melting point of 78 to 84 °C.
Work on `CS(=O)(=O)c1ccc(C(CC2CCC(=O)C2)C(=O)Nc2cnc(Br)cn2)cc1Cl` (stereo not shown) [Example 49, N-(5-Bromo-pyrazin-2-yl)-2-(3-chloro-4-methanesulfonyl-phenyl)-3-(3-oxo-cyclopentyl)-propionamide] yielded a melting point of 97 to 103 °C.
Work on `O=C(Nc1nccs1)C(CC1CCCC1O)c1ccc(Cl)c(Cl)c1` (stereo not shown) [Example 25, 2-(3,4-Dichloro-phenyl)-3-(2-hydroxy-cyclopentyl)-N-thiazol-2-yl-propionamide] yielded a melting point of 86 to 88 °C.
`CNC(=O)NC(=O)C(CC1CCCC1=O)c1ccc(Cl)c(Cl)c1` (stereo not shown) [Example 27, 1-[2-(3,4-Dichloro-phenyl)-3-(2-oxo-cyclopentyl)-propionyl]-3-methyl-urea] showed a melting point of 63 to 65 °C.
Work on `CS(=O)(=O)c1ccc(C(CC2CCCC2O)C(=O)Nc2nccs2)cc1` (stereo not shown) [Example 26, 3-(2-Hydroxy-cyclopentyl)-2-(4-methanesulfonyl-phenyl)-N-thiazol-2-yl-propionamide] yielded a melting point of 205 to 206 °C.
`CNC(=O)NC(=O)C(CC1CCC(O)C1)c1ccc(Cl)c(Cl)c1` (stereo not shown) [Example 35, 1-[2-(3,4-Dichloro-phenyl)-3-(3-hydroxy-cyclopentyl)-propionyl]-3-methyl-urea] showed a melting point of 82 to 84 °C.
`CNC(=O)NC(=O)C(CC1CCC(=O)C1)c1ccc(Cl)c(Cl)c1` (stereo not shown) [Example 42, 1-[2-(3,4-Dichloro-phenyl)-3-(3-oxo-cyclopentyl)-propionyl]-3-methyl-urea] showed a melting point of 70 to 74 °C.
For `CS(=O)(=O)c1ccc(C(CC2CCOCC2)C(=O)Nc2cnc(/C(N)=N/O)cn2)cc1Cl` (stereo not shown) [Example 23], the melting point was 137.2 to 140.5 °C.
`CS(=O)(=O)c1ccc(C(CC2CCC(O)C2)C(=O)Nc2nccs2)cc1` (stereo not shown) [Example 37, 3-(3-Hydroxy-cyclopentyl)-2-(4-methanesulfonyl-phenyl)-N-thiazol-2-yl-propionamide] gave a melting point of 69 to 72 °C.
`O=C(Nc1nccs1)C(CC1CCCO1)c1ccc(Cl)c(Cl)c1` (stereo not shown) [Example 2, 2-(3,4-Dichloro-phenyl)-3-(tetrahydro-furan-2-yl)-N-thiazol-2-yl-propionamide] showed a melting point of 69 to 71 °C.
With `CNC(=O)NC(=O)C(CC1CCCCO1)c1ccc(Cl)c(Cl)c1` (stereo not shown) [Example 7, 1-[2-(3,4-Dichloro-phenyl)-3-(tetrahydro-pyran-2-yl)-propionyl]-3-methyl urea] the melting point was 172.8 to 174.2 °C.
Work on `CS(=O)(=O)c1ccc(C(CC2CCC(=O)C2)C(=O)Nc2nccs2)cc1` (stereo not shown) [Example 44, 2-(4-Methanesulfonyl-phenyl)-3-(3-oxo-cyclopentyl)-N-thiazol-2-yl-propionamide] yielded a melting point of 94 to 97 °C.
With `CO/N=C1/CCC(CC(C(=O)Nc2cnc(Br)cn2)c2ccc(S(C)(=O)=O)c(Cl)c2)C1` (stereo not shown) [Example 55, N-(5-Bromo-pyrazin-2-yl)-2-(3-chloro-4-methanesulfonyl-phenyl)-3-(3-methoxyimino-cyclopentyl)-propionamide] the melting point was 91 to 97 °C.
With `O=C(Nc1nccs1)C(CC1CCC(F)(F)C1)c1ccc(Cl)c(Cl)c1` (stereo not shown) [Example 56, 2-(3,4-Dichloro-phenyl)-3-(3,3-difluoro-cyclopentyl)-N-thiazol-2-yl-propionamide] the melting point was 154 to 156 °C.
